# Patent publication US20260007613A1, “LONG-ACTING LOW-TOXICITY NOVEL CATIONIC LIPID COMPOUNDS AND COMPOSITION THEREOF” (BEIJING YOUCAREKECHUANG PHARMACEUTICAL TECHNOLOGY CO., LTD., priority 2023, published 2026)
# “And” between values parts separate entries of the source, which are not always exact repeats. Equal entries are not always repeated.
# Columns and labels:
# 293T cells [1] = assay: Fluorescent detection of Fluc-mRNA (cell transfection efficiency of LNP formulations); format: cell-based
# Outline: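 293T cells were seeded at 10,000/well and cultured overnight, then given LNP carrying […] Fluc-mRNA (cationic:neutral:structured:polymer-conjugated lipid 49:10:39.5:1.5 molar) for 24 h. Luminescence was developed with […] and imaged on IVIS.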
# female BALB/C mice = assay: Live imaging in mice: protein expression of Fluc-mRNA delivered by LNP formulations; format: in vivo; settings: for average radiation intensity, times that of ALC-0315: comparator ALC-0315; for average radiation intensity, times that of HHMA: comparator HHMA; for average radiation intensity, times that of SM-102: comparator SM-102; for expression of mRNA in mice, times that of YK-302: comparator YK-302; for expression amount, times that of YK-309: comparator YK-309; for expression amount, times that of YK-313: comparator YK-313; for expression amount, times that of YK-321: comparator YK-321; for average radiation intensity, times that of compound 21: comparator compound 21; for average radiation intensity, times that of compound 23: comparator compound 23
# Outline: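 Female BALB/C mice (4-6 weeks, 17-19 g) received LNP-formulated Fluc-mRNA […] intramuscularly. At 6 h, 24 h, 48 h and 7 d, luciferase substrate given intraperitoneally, and after 5 min average radiance measured by IVIS whole-body imaging.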
# [2] = Particle size and polydispersity index (PDI) of lipid nanoparticles by dynamic light scattering; format: physicochemical; settings: LNP formulation prepared from the cationic lipid, 25° C.
# Experimental: The particle size and polydispersity index (PDI) were determined by dynamic light scattering using Malvern laser particle size analyzer.
# 10 μL of the liposome solution was weighed, diluted to 1 mL with RNase-free deionized water, and added to the sample pool. Each sample was measured in triplicate. The measurement conditions were: […] scattering angle, and 25° C.
# 293T cells [3] = assay: Cell survival rate determination (CCK-8); format: cell-based
# Outline: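 293T cells plated at 10,000/well (96-well), adhered overnight, then exposed 24 h to Fluc-mRNA LNP (cationic:neutral:structured:PEG-lipid 49:10:39.5:1.5) or Lipofectamine 3000. Viability by CCK-8, 1 h incubation, absorbance at 450 nm.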
smiles,measurement,setting,value
"CCCCCCCCC(CCCCCCCC)COC(=O)CCCCCN(CCCCCC(=O)OCC(CCCCCCCC)CCCCCCCC)C[C@H](O)CN(CC)CCO [YK-312, (S)-bis(2-octyldecyl)-6,6′-((2-hydroxy-3-((2-hydroxyethyl)(ethyl)amino)propyl)azanediyl)dihexanoate]",Relative light unit (RLU),"293T cells [1]; LNP formulation of Fluc-mRNA, 96-well plate, 24 hours",20148450 RLU
same,Multiples (YK-305),293T cells [1]; RLU of YK-305 / RLU of the lipid of the line,1.36
same,Multiples (YK-310),293T cells [1]; RLU of YK-310 / RLU of the lipid of the line,1.28
same,Multiples (YK-312),293T cells [1]; RLU of YK-312 / RLU of the lipid of the line,1.00
same,Multiples (YK-318),"293T cells [1]; RLU of YK-318 / RLU of the lipid of the line, Tables 5, 7, 11",0.56
same,Multiples (YK-319),"293T cells [1]; RLU of YK-319 / RLU of the lipid of the line, Tables 5, 7, 11",1.21
same,Ratio relative to SM-102,"293T cells [1]; RLU of the lipid / RLU of SM-102, times that of SM-102",12.56
same,"cell transfection efficiency, times that of ALC-0315",293T cells [1]; comparator ALC-0315,9.91 times
same,"cell transfection efficiency, times that of HHMA",293T cells [1]; comparator HHMA,10.04 times
same,"cell transfection efficiency, times that of Lipofectamine 3000",293T cells [1]; comparator Lipofectamine 3000,16.99 times
same,"cell transfection efficiency, times that of YK-009",293T cells [1]; comparator YK-009,3.94 times
same,"cell transfection efficiency, times that of YK-301",293T cells [1]; comparator YK-301,23.92 times
same,"cell transfection efficiency, times that of YK-302",293T cells [1]; comparator YK-302,725.34 times
same,"cell transfection efficiency, times that of YK-303",293T cells [1]; comparator YK-303,32.17 times
same,"cell transfection efficiency, times that of YK-304",293T cells [1]; comparator YK-304,~900 times and 974.01 times
same,"cell transfection efficiency, times that of YK-306",293T cells [1]; comparator YK-306,9.17 times
same,"cell transfection efficiency, times that of YK-307",293T cells [1]; comparator YK-307,4.42 times
same,"cell transfection efficiency, times that of YK-308",293T cells [1]; comparator YK-308,4.00 times
same,"cell transfection efficiency, times that of YK-309",293T cells [1]; comparator YK-309,~160 times and 160.71 times
same,"cell transfection efficiency, times that of YK-311",293T cells [1]; comparator YK-311,10.26 times
same,"cell transfection efficiency, times that of YK-313",293T cells [1]; comparator YK-313,23.25 times
same,"cell transfection efficiency, times that of YK-314",293T cells [1]; comparator YK-314,36.81 times
same,"cell transfection efficiency, times that of YK-315",293T cells [1]; comparator YK-315,12.69 times
same,"cell transfection efficiency, times that of YK-316",293T cells [1]; comparator YK-316,4.19 times
same,"cell transfection efficiency, times that of YK-317",293T cells [1]; comparator YK-317,5.59 times
same,"cell transfection efficiency, times that of YK-320",293T cells [1]; comparator YK-320,7.45 times
same,"cell transfection efficiency, times that of YK-321",293T cells [1]; comparator YK-321,14.36 times
same,"cell transfection efficiency, times that of compound 21",293T cells [1]; comparator compound 21,14.07 times
same,"cell transfection efficiency, times that of compound 23",293T cells [1]; comparator compound 23,14.86 times
same,"average radiation intensity, times that of ALC-0315",female BALB/C mice; 6 h,9.27 times
same,"average radiation intensity, times that of HHMA",female BALB/C mice; 6 h,12.30 times
same,"average radiation intensity, times that of SM-102",female BALB/C mice; 6 h,11.42 times
same,"expression of mRNA in mice, times that of YK-302",female BALB/C mice; 6 h,549.37 times
same,"expression amount, times that of YK-309",female BALB/C mice; 6 h,121.95 times
same,"expression amount, times that of YK-313",female BALB/C mice; 6 h,18.11 times
same,"expression amount, times that of YK-321",female BALB/C mice; 6 h,15.54 times
same,"average radiation intensity, times that of compound 21",female BALB/C mice; 6 h,13.12 times
same,"average radiation intensity, times that of compound 23",female BALB/C mice; 6 h,13.59 times
same,average radiation intensity,female BALB/C mice; 6 h after intramuscular injection,8009850
same,"average radiation intensity, times that of ALC-0315",female BALB/C mice; 24 h,11.96 times
same,"average radiation intensity, times that of HHMA",female BALB/C mice; 24 h,19.00 times
same,"average radiation intensity, times that of SM-102",female BALB/C mice; 24 h,18.91 times
same,"expression of mRNA in mice, times that of YK-302",female BALB/C mice; 24 h,575.97 times
same,"expression amount, times that of YK-309",female BALB/C mice; 24 h,135.46 times
same,"expression amount, times that of YK-313",female BALB/C mice; 24 h,21.82 times
same,"expression amount, times that of YK-321",female BALB/C mice; 24 h,22.51 times
same,"average radiation intensity, times that of compound 21",female BALB/C mice; 24 h,20.74 times
same,"average radiation intensity, times that of compound 23",female BALB/C mice; 24 h,21.80 times
same,average radiation intensity,female BALB/C mice; 24 h after intramuscular injection,2278520
same,"average radiation intensity, times that of ALC-0315",female BALB/C mice; 48 h,20.43 times
same,"average radiation intensity, times that of HHMA",female BALB/C mice; 48 h,24.98 times
same,"average radiation intensity, times that of SM-102",female BALB/C mice; 48 h,24.98 times
same,"expression of mRNA in mice, times that of YK-302",female BALB/C mice; 48 h,793.37 times
same,"expression amount, times that of YK-309",female BALB/C mice; 48 h,124.13 times
same,"expression amount, times that of YK-313",female BALB/C mice; 48 h,31.82 times
same,"expression amount, times that of YK-321",female BALB/C mice; 48 h,22.24 times
same,"average radiation intensity, times that of compound 21",female BALB/C mice; 48 h,26.25 times
same,"average radiation intensity, times that of compound 23",female BALB/C mice; 48 h,24.55 times
same,average radiation intensity,female BALB/C mice; 48 h after intramuscular injection,813200
same,"average radiation intensity, times that of ALC-0315",female BALB/C mice; 7 d,14.97 times
same,"average radiation intensity, times that of HHMA",female BALB/C mice; 7 d,17.97 times
same,"average radiation intensity, times that of SM-102",female BALB/C mice; 7 d,15.93 times
same,"expression of mRNA in mice, times that of YK-302",female BALB/C mice; 7 d,274.74 times
same,"expression amount, times that of YK-309",female BALB/C mice; 7 d,84.00 times
same,"expression amount, times that of YK-313",female BALB/C mice; 7 d,32.61 times
same,"expression amount, times that of YK-321",female BALB/C mice; 7 d,16.02 times
same,"average radiation intensity, times that of compound 21",female BALB/C mice; 7 d,16.37 times
same,"average radiation intensity, times that of compound 23",female BALB/C mice; 7 d,16.91 times
same,average radiation intensity,female BALB/C mice; 7 d after intramuscular injection,105500
same,PDI (%),[2],33.4%
same,Particle size (nm),[2],184 nm
same,Cell survival rate (%),"293T cells [3]; LNP formulation of Fluc-mRNA, 24 hours, CCK-8",76.96%
same,cell survival rate higher than ALC-0315,"293T cells [3]; difference of survival rates, comparator ALC-0315",25.93%
same,cell survival rate higher than HHMA,"293T cells [3]; difference of survival rates, comparator HHMA",10.49%
same,cell survival rate higher than Lipofectamine 3000,"293T cells [3]; difference of survival rates, comparator Lipofectamine 3000",51.95%
same,cell survival rate higher than SM-102,"293T cells [3]; difference of survival rates, comparator SM-102",7.51%
same,cell survival rate higher than YK-301,"293T cells [3]; difference of survival rates, comparator YK-301",24.00%
same,cell survival rate higher than YK-302,"293T cells [3]; difference of survival rates, comparator YK-302",60.53%
same,cell survival rate higher than YK-303,"293T cells [3]; difference of survival rates, comparator YK-303",13.64%
same,cell survival rate higher than YK-304,"293T cells [3]; difference of survival rates, comparator YK-304",42.80%
same,cell survival rate higher than YK-306,"293T cells [3]; difference of survival rates, comparator YK-306",34.77%
same,cell survival rate higher than YK-307,"293T cells [3]; difference of survival rates, comparator YK-307",15.82%
same,cell survival rate higher than YK-308,"293T cells [3]; difference of survival rates, comparator YK-308",5.97%
same,cell survival rate higher than YK-309,"293T cells [3]; difference of survival rates, comparator YK-309",45.35%
same,cell survival rate higher than YK-311,"293T cells [3]; difference of survival rates, comparator YK-311",6.90%
same,cell survival rate higher than YK-313,"293T cells [3]; difference of survival rates, comparator YK-313",8.03%
same,cell survival rate higher than YK-314,"293T cells [3]; difference of survival rates, comparator YK-314",9.08%
same,cell survival rate higher than YK-315,"293T cells [3]; difference of survival rates, comparator YK-315",5.68%
same,cell survival rate higher than YK-316,"293T cells [3]; difference of survival rates, comparator YK-316",6.43%
same,cell survival rate higher than YK-317,"293T cells [3]; difference of survival rates, comparator YK-317",17.78%
same,cell survival rate higher than YK-320,"293T cells [3]; difference of survival rates, comparator YK-320",5.89%
same,cell survival rate higher than YK-321,"293T cells [3]; difference of survival rates, comparator YK-321",4.62%
same,cell survival rate higher than compound 21,"293T cells [3]; difference of survival rates, comparator compound 21",6.75%
same,cell survival rate higher than compound 23,"293T cells [3]; difference of survival rates, comparator compound 23",5.46%
